{"source": "patent US20230414778A1", "about": "“COMBINATION OF ANTIBODY-DRUG CONJUGATE WITH ANTI-SIRPalpha ANTIBODY” (DAIICHI SANKYO COMPANY, LIMITED, priority 2020, published 2023)", "origin": "cited, not measured here", "biological_target": "T1, Topoisomerase I (Homo sapiens, UniProt P11387)", "T1 sequence (P11387 1-765)": "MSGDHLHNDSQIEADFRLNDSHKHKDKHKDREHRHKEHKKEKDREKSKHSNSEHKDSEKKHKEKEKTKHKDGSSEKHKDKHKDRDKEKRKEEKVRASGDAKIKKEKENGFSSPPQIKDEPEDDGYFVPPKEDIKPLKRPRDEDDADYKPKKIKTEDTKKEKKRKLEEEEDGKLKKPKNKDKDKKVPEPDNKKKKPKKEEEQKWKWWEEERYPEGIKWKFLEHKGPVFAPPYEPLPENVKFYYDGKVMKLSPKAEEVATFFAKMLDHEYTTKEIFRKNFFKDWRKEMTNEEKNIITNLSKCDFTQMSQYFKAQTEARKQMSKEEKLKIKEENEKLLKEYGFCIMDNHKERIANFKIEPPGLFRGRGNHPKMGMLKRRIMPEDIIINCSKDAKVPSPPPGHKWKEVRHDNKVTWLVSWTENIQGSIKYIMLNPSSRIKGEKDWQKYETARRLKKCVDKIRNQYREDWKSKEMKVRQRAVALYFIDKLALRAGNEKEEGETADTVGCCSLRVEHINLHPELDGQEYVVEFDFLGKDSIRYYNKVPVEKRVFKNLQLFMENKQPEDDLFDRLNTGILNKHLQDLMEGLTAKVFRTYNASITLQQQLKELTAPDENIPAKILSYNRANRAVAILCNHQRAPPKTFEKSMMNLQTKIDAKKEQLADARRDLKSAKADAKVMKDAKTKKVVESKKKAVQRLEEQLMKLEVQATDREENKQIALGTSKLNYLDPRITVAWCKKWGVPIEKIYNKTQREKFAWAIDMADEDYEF", "details": "Ogitani Y. et al., Clinical Cancer Research 2016; cited from earlier work"}
{"smiles": "CC[C@@]1(O)C(=O)OCc2c1cc1n(c2=O)Cc2c-1nc1cc(F)c(C)c3c1c2[C@@H](NC(=O)CO)CC3", "note": "[compound (A)]", "values": [{"measurement": "topoisomerase I inhibitory effect", "value": "TpoI inhibitor"}]}
